# Where two headings read alike, the source gives them in different places.
# Legend:
# [1] = molecular target: T1, recombinant human JAK1 kinase domain protein (Residues 854-1154) (Homo sapiens, UniProt P23458); experiment: JAK1 biochemical assay (LabChip mobility shift, Ki); conditions: read-out: Biochem JAK1 Ki
# T1 construct: human JAK1 kinase domain protein (Residues 854-1154); purchased Proteros Biostructures GmbH (Martinsried, Germany); host or cells: insect cells
# [2] = system: IL-13-stimulated STAT6 phosphorylation in human lung bronchial epithelial BEAS-2B cell line; experiment: P-STAT6 BEAS-2B + IL-13 cell assay; format: cell-based; conditions: BEAS2B cells, IL13 stimulation, read-out: Cellular JAK1 PSTAT6 BEAS2B + IL13
# Method: In order to study the effect of JAK1 inhibitors in a cell line that is relevant to the cell biology of human asthma, an IL-13-stimulated STAT6 phosphorylation assay in the human lung bronchial epithelial BEAS-2B cell line was developed.
# BEAS-2B cells (ATCC′ CRL-9609™) were grown in Bronchial Epithelial Growth Medium (BEGM) (Lonza Catalog No. CC-3170; Walkersville, MD; or PromoCell Catalog No. C-21060; Heidelberg, Germany). Test compound stock solutions (0.5 mM in DMSO) were serially diluted 1:2 in DMSO to generate a 10-point concentration curve (at 500× test concentration), which was further diluted by a 50-fold dilution step in BEGM to generate a 10× concentration curve (in 2% DMSO). Cells were plated at 100,000 cells/well in 200 μL of BEGM in 96-well plates and incubated for 48 hours at 37° C. in a humidified incubator. Medium was aspirated from the cells and replaced with 70 μL of fresh BEGM. Diluted test compound (10 μL; or 2% DMSO in assay medium) was added to the cells, and the plates were incubated for 1 hour at 37° C. in a humidified incubator. Twenty μL of 250 ng/mL human recombinant IL-13 (Bio Techne Catalog No. 213-ILB) was then added to the cells and incubated for 15 minutes at 37° C. Medium was aspirated from the cells and 60 μL of ice-cold 1× cell lysis buffer (Cell Signaling Technologies; Catalog No. 9803S) containing 1 mM PMSF was added to the cells. Assay plates were incubated at −80° C. for at least 1 hour. P-STAT6 was measured by coating GAR plates (MSD; Catalog No. L45RA-1) with rabbit anti-human total STAT6 antibody (Cell Signaling Technologies; Catalog No. 9362S), incubating the cell lysates in the coated plates overnight at 4° C., and then detecting with mouse anti-phospho-STAT6 (Tyr641) Clone 16E12 antibody (Millipore; Catalog No. 05-590, custom labeled by MSD with SULFO-tag) using standard MSD plate processing, washing, and detection protocols. Plates were read on the MESO SECTOR 5600.
# Data analysis was performed by subtracting negative control values from all wells and determining percent of control using the positive control values; the IC50 was determined with a four-parameter logistic fit model as shown in Equation 4.
# [3] = molecular target: Recombinant human JAK2 kinase domain protein (Residues 812-1132) (Homo sapiens, UniProt O60674); experiment: JAK2 biochemical assay (LabChip mobility shift, Ki); conditions: Biochem JAK2 Ki
# Recombinant human JAK2 kinase domain protein (Residues 812-1132), sequence (O60674 812-1132): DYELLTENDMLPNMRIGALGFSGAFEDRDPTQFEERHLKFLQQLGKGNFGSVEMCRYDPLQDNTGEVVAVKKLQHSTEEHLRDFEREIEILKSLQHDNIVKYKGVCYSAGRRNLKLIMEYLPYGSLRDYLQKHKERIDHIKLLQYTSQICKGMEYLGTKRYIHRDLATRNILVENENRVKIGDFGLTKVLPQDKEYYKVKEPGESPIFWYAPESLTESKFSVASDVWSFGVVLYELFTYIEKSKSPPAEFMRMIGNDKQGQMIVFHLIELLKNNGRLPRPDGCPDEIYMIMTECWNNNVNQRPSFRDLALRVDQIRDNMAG
# T1 sequence (P23458 854-1154): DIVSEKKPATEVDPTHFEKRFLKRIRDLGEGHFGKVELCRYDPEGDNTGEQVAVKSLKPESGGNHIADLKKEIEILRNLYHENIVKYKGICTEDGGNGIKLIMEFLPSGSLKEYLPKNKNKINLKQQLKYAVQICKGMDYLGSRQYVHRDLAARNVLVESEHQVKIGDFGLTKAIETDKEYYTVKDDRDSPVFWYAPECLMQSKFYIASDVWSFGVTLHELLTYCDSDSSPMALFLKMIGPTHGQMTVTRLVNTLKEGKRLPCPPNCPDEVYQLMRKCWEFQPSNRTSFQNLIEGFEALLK
SMILES,Ki [1],Ki [3],"IC50 ([2]; Homo sapiens, BEAS-2B)",IC50 [2]
"CN1CCCC(O)(Cn2cc(Oc3ccc(OC(F)F)c(-c4nn(C)cc4NC(=O)c4cnn5cccnc45)c3)cn2)CC1 (stereo not drawn) [Example 197, N-[3-[2-(difluoromethoxy)-5-[1-[(4-hydroxy-l-methyl-azepan-4-yl)methyl]pyrazol-4-yl]oxy-phenyl]-1-methyl-pyrazol-4-yl]pyrazolo[1,5-a]pyrimidine-3-carboxamide]",0.81 nM,0.51 nM,–,130 nM
"CN(C)CCN1CC(O)(Cn2cc(Oc3ccc(OC(F)F)c(-c4nn(C)cc4NC(=O)c4cnn5cccnc45)c3)cn2)C1 [Example 198, N-[3-[2-(difluoromethoxy)-5-[1-[[1-[2-(dimethylamino)ethyl]-3-hydroxy-azetidin-3-yl]methyl]pyrazol-4-yl]oxy-phenyl]-1-methyl-pyrazol-4-yl]pyrazolo[1,5-a]pyrimidine-3-carboxamide]",1.5 nM,0.83 nM,1000 nM,–
"CN1CCCC(O)(Cn2cc(Oc3ccc(OC(F)F)c(-c4nn(C)cc4NC(=O)c4cnn5cccnc45)c3)cn2)C1 (stereo not drawn) [Example 193, N-[3-[2-(difluoromethoxy)-5-[1-[(3-hydroxy-l-methyl-3-piperidyl)methyl]pyrazol-4-yl]oxy-phenyl]-1-methyl-pyrazol-4-yl]pyrazolo[1,5-a]pyrimidine-3-carboxamide]",1.6 nM,2.3 nM,58 nM,–
"Cc1cc(Oc2ccc(OC(F)F)c(-c3nn(C)cc3NC(=O)c3cnn4cccnc34)c2)ccc1C(=O)N1CCN(C)CC1 [Example 85, N-[3-[2-(difluoromethoxy)-5-[3-methyl-4-(4-methylpiperazine-1-carbonyl)phenoxy]phenyl]-1-methyl-pyrazol-4-yl]pyrazolo[1,5-a]pyrimidine-3-carboxamide]",1.3 nM,0.4 nM,110 nM,–
"Cn1cc(NC(=O)c2cnn3cccnc23)c(-c2cc(Oc3cnn(CCN4CCOCC4)c3)ccc2OC(F)F)n1 [Example 68, N-[3-[2-(difluoromethoxy)-5-[1-(2-morpholinoethyl)pyrazol-4-yl]oxy-phenyl]-1-methyl-pyrazol-4-yl]pyrazolo[1,5-a]pyrimidine-3-carboxamide]",6.2 nM,2.9 nM,–,–
"Cn1cc(NC(=O)c2cnn3cccnc23)c(-c2cc(Oc3cnn(C4CC(O)C4)c3)ccc2OC(F)F)n1 (stereo not drawn) [Example 119, N-[3-[2-(difluoromethoxy)-5-[1-(3-hydroxycyclobutyl)pyrazol-4-yl]oxy-phenyl]-1-methyl-pyrazol-4-yl]pyrazolo[1,5-a]pyrimidine-3-carboxamide]",0.9 nM,0.52 nM,–,41 nM
"O=C(Nc1c[nH]nc1-c1cc(Oc2cccc(OCC(F)(F)F)c2)ccc1OC(F)F)c1cnn2cccnc12 [Example 4, N-[3-[2-(difluoromethoxy)-5-[3-(2,2,2-trifluoroethoxy)phenoxy]phenyl]-1H-pyrazol-4-yl]pyrazolo[1,5-a]pyrimidine-3-carboxamide]",1.1 nM,0.7 nM,18 nM,–
"Cn1cc(NC(=O)c2cnn3cccnc23)c(-c2cc(Oc3cnn(CCBr)c3)ccc2OC(F)F)n1 [Example 214, N-[3-[5-[1-(2-bromoethyl)pyrazol-4-yl]oxy-2-(difluoromethoxy)phenyl]-1-methyl-pyrazol-4-yl]pyrazolo[1,5-a]pyrimidine-3-carboxamide]",1.1 nM,0.68 nM,–,–
"CCCN(CCCO)Cc1ccc(Oc2ccc(OC(F)F)c(-c3nn(C)cc3NC(=O)c3cnn4cccnc34)c2)cc1 [Example 161, N-(3-(2-(difluoromethoxy)-5-(4-(((3-hydroxypropyl) (propyl)amino)methyl)phenoxy)phenyl)-1-methyl-1H-pyrazol-4-yl)pyrazolo[1,5-a]pyrimidine-3-carboxamide]",6 nM,2.2 nM,–,–
"Cn1cc(NC(=O)c2cnn3cccnc23)c(-c2cc(Oc3cnn(CCC4CO4)c3)ccc2OC(F)F)n1 (stereo not drawn) [Example 215, N-[3-[2-(difluoromethoxy)-5-[1-[2-(oxiran-2-yl)ethyl]pyrazol-4-yl]oxy-phenyl]-1-methyl-pyrazol-4-yl]pyrazolo[1,5-a]pyrimidine-3-carboxamide]",1.9 nM,1.1 nM,–,–

# More lines, main results first:
Ki [1],Ki [3],SMILES,"IC50 ([2]; Homo sapiens, BEAS-2B)",IC50 [2]
0.61 nM,0.26 nM,"Cc1cc(Oc2ccc(OC(F)F)c(-c3nn(C)cc3NC(=O)c3cnn4cccnc34)c2)ccc1C(=O)N(C)C [Example 74, N-[3-[2-(difluoromethoxy)-5-[4-(dimethylcarbamoyl)-3-methyl-phenoxy]phenyl]-1-methyl-pyrazol-4-yl]pyrazolo[1,5-a]pyrimidine-3-carboxamide]",30 nM,–
0.23 nM,0.2 nM,"NCc1cccc(Oc2ccc(OC(F)F)c(-c3n[nH]cc3NC(=O)c3cnn4cccnc34)c2)c1 [Example 6, N-[3-[5-[3-(aminomethyl)phenoxy]-2-(difluoromethoxy)phenyl]-1H-pyrazol-4-yl]pyrazolo[1,5-a]pyrimidine-3-carboxamide]",11 nM,–
0.48 nM,0.54 nM,"Cn1cc(NC(=O)c2cnn3cccnc23)c(-c2cc(Oc3ccc(F)c(C4(O)CNC4)c3)ccc2OC(F)F)n1 [Example 103, N-[3-[2-(difluoromethoxy)-5-[4-fluoro-3-(3-hydroxyazetidin-3-yl)phenoxy]phenyl]-1-methyl-pyrazol-4-yl]pyrazolo[1,5-a]pyrimidine-3-carboxamide]",260 nM,–
0.57 nM,0.39 nM,"CN1CC(O)(c2cncc(Oc3ccc(OC(F)F)c(-c4nn(C)cc4NC(=O)c4cnn5cccnc45)c3)c2)C1 [Example 189, N-[3-[2-(difluoromethoxy)-5-[[5-(3-hydroxy-l-methyl-azetidin-3-yl)-3-pyridyl]oxy]phenyl]-1-methyl-pyrazol-4-yl]pyrazolo[1,5-a]pyrimidine-3-carboxamide]",78 nM,–
0.35 nM,0.35 nM,"Cn1cc(NC(=O)c2cnn3cccnc23)c(-c2cc(Oc3cccc(C(=O)N4CCNCC4)c3)ccc2OC(F)F)n1 [Example 80, N-[3-[2-(difluoromethoxy)-5-[3-(piperazine-1-carbonyl)phenoxy]phenyl]-1-methyl-pyrazol-4-yl]pyrazolo[1,5-a]pyrimidine-3-carboxamide]",61 nM,–
0.17 nM,0.23 nM,"Cn1cc(NC(=O)c2cnn3cccnc23)c(-c2cc(Oc3cc(F)cc(C4(O)CNC4)c3)ccc2OC(F)F)n1 [Example 95, N-[3-[2-(difluoromethoxy)-5-[3-fluoro-5-(3-hydroxyazetidin-3-yl)phenoxy]phenyl]-1-methyl-pyrazol-4-yl]pyrazolo[1,5-a]pyrimidine-3-carboxamide]",110 nM,–
0.8 nM,0.52 nM,"CN1CCCC(O)(Cn2cc(Oc3ccc(OC(F)F)c(-c4nn(C)cc4NC(=O)c4cnn5cccnc45)c3)cn2)CC1 (stereo not drawn) [Example 196, N-[3-[2-(difluoromethoxy)-5-[1-[(4-hydroxy-1-methyl-azepan-4-yl)methyl]pyrazol-4-yl]oxy-phenyl]-1-methyl-pyrazol-4-yl]pyrazolo[1,5-a]pyrimidine-3-carboxamide]",120 nM,–
0.62 nM,0.29 nM,"CN1CCN(C(=O)Cc2ccc(Oc3ccc(OC(F)F)c(-c4nn(C)cc4NC(=O)c4cnn5cccnc45)c3)cc2)CC1 [Example 146, N-[3-[2-(difluoromethoxy)-5-[4-[2-(4-methylpiperazin-1-yl)-2-oxo-ethyl]phenoxy]phenyl]-1-methyl-pyrazol-4-yl]pyrazolo[1,5-a]pyrimidine-3-carboxamide]",40 nM,–
0.18 nM,0.096 nM,"O=C(Nc1c[nH]nc1-c1cc(Oc2ccccc2)ccc1OC(F)F)c1cnn2cccnc12 [Example 1, N-[3-[2-(difluoromethoxy)-5-phenoxy-phenyl]-1H-pyrazol-4-yl]pyrazolo[1,5-a]pyrimidine-3-carboxamide]",–,–
0.62 nM,–,"CNC(=O)c1cncc(Oc2ccc(OC(F)F)c(-c3nn(C)cc3NC(=O)c3cnn4cccnc34)c2)c1 [Example 158, N-[3-[2-(difluoromethoxy)-5-[[5-(methylcarbamoyl)-3-pyridyl]oxy]phenyl]-1-methyl-pyrazol-4-yl]pyrazolo[1,5-a]pyrimidine-3-carboxamide]",37 nM,–

# — patent publication US12528812B2 (Genentech, Inc., priority 2020, dated 2026)
